Results on three compounds are retold here after patent US10624345B2, “Protoporphyrinogen oxidase inhibitor mixtures” (Valent U.S.A. LLC, priority 2017, dated 2020).

Entries after “also recorded” stand apart in the source; their conditions may differ.

In one data set the test system is Yellow Nutsedge. Put plainly: Field trial, post-emergence weed control, Yellow Nutsedge. In kind it is in vivo, Cyperus esculentus. The settings on record: compared with the other adjuvant; in words. As to the method:
(§1) A field trial was conducted in Mississippi, United States, to evaluate the impact of the C16 to C18 fatty acid methyl esters adjuvant system on the effectiveness of several herbicides. Rice, soybeans, cotton, peanut and corn seeds were planted and irrigated on two days after planting. Seven days after planting there was good stand of all of the crops, except only 4 of the 9 rows of rice were visible. The weeds were about 3 centimeters tall at this time. The treatments in Table 2 below were applied 13 days after planting. The rate of each treatment is below in Table 2 and all of the adjuvant systems were mixed with the herbicides at a rate of 1% v/v.
(§2) At the time of treatment: Hemp Sesbania was at the V4 growth stage and from about 3 to 5 about inches tall; Ivyleaf Morningglory was at the V3 growth stage and from about 2 to about 4 inches tall; Common Barnyardgrass was at the V5 growth stage and from about 2.5 to about 6 inches tall; Palmer Amaranth was at the vegetative growth stage and from about 2 to about 7 inches tall; Yellow Nutsedge was at the V8 growth stage and from about 3 to about 6 inches tall; and Broadleaf Signalgrass was at the second true leaf growth stage and from about 2 to about 4 inches tall.
(§3) The weeds were evaluated fourteen days after treatment. […]

The next data set deals with corn. Kind of data set: Field trial, crop phytotoxicity, corn. The settings on record: compared with the other adjuvant; in words. It counts as in vivo. As to the method:
as §1
(§4) At the time of treatment: rice was at the first true leaf growth stage and from about 5 to 7 inches tall; soybeans were at the V2 growth stage and from about 5 to 7 inches tall; cotton was at the V2 growth stage and from about 5 to 7 inches tall; peanut was at the V5 growth stage and from about 3 to 5 inches tall; and corn was at the V3 growth stage and from about 9 to 12 inches tall.
(§5) The adjuvant system described in Example 1 above was used as the source of the C16 to C18 fatty acid methyl esters adjuvant system used in this study.
(§6) In this study, phytotoxicity of the crops was also evaluated.

The next data set relates to Broadleaf Signalgrass. Kind of data set: Field trial, post-emergence weed control, Broadleaf Signalgrass. It counts as in vivo, Brachiaria platyhylla. The settings on record: compared with the other adjuvant; in words. As to the method: as §1, §2, §3
The subject of the next data set is cotton. Kind of data set: Field trial, crop phytotoxicity, cotton. In kind it is in vivo. The settings on record: compared with the other adjuvant; in words. On the procedure:
as §1, §4, §5, §6

The next data set relates to Ivyleaf Morningglory. Kind of data set: Field trial, post-emergence weed control, Ivyleaf Morningglory. In kind it is in vivo. Conditions: compared with the other adjuvant; in words. On the procedure: as §1, §2, §3
In another data set the test system is Hemp Sesbania. Kind of data set: Field trial, post-emergence weed control, Hemp Sesbania. In kind it is in vivo. Conditions: compared with the other adjuvant; in words. On the procedure:
as §1, §2, §3

For a further data set, the system named is weeds. Put plainly: Field trial, impact of the adjuvant system on herbicide effectiveness, weeds overall. In kind it is in vivo. The settings on record: compared with the other adjuvant; no weed named; in words. On the procedure:
as §1, §2
The weeds were evaluated fourteen days after treatment.
as §5

The next data set deals with Palmer Amaranth. Kind of data set: Field trial, post-emergence weed control, Palmer Amaranth. In kind it is in vivo. Conditions: compared with the other adjuvant; in words. On the procedure: as §1, §2, §3
The next data set relates to peanut. Put plainly: Field trial, crop phytotoxicity, peanut. It counts as in vivo. The settings on record: compared with the other adjuvant; in words. On the procedure:
as §1, §4, §5, §6

In a further data set the test system is soybeans. Kind of data set: Field trial, crop phytotoxicity, soybeans. Conditions: compared with the other adjuvant; in words. It counts as in vivo. On the procedure: as §1, §4, §5, §6
The test system of another data set is Common Barnyardgrass. Put plainly: Field trial, post-emergence weed control, Common Barnyardgrass. It counts as in vivo, Echinochloa crus-galli. Conditions: compared with the other adjuvant; in words. As to the method: as §1, §2, §3
The next data set relates to rice. Kind of data set: Field trial, crop phytotoxicity, rice. It counts as in vivo. The settings on record: compared with the other adjuvant; in words. On the procedure: as §1, §4, §5, §6

Regarding `CCOC(=O)COc1ncccc1Oc1cc(-n2c(=O)cc(C(F)(F)F)n(C)c2=O)c(F)cc1Cl` [ethyl [3-[2-chloro-4-fluoro-5-(1-methyl-6-trifluoromethyl-2,4-dioxo-1,2,3,4-tetrahydropyrimidin-3-yl)phenoxy]-2-pyridyloxy]acetate], the “Effect of C16 to C18 fatty acid methyl esters adjuvant system on effectiveness on Yellow Nutsedge” value with Yellow Nutsedge was “did not increase the effectiveness”. Moreover, in the data set with corn, the “Effect of C16 to C18 fatty acid methyl esters adjuvant system on phytotoxicity on corn” value is recorded as “did not significantly increase phytotoxicity”. Moreover, the “Effect of C16 to C18 fatty acid methyl esters adjuvant system on effectiveness on Broadleaf Signalgrass” value in the data set with Broadleaf Signalgrass was “increases the effectiveness”. Moreover, the “Effect of C16 to C18 fatty acid methyl esters adjuvant system on phytotoxicity on cotton” value in the data set with cotton is “did not significantly increase phytotoxicity”. For the same compound, the “Effect of C16 to C18 fatty acid methyl esters adjuvant system on effectiveness on Ivyleaf Morningglory” value with Ivyleaf Morningglory is “did not increase the effectiveness”. Moreover, the “Effect of C16 to C18 fatty acid methyl esters adjuvant system on effectiveness on Hemp Sesbania” value with Hemp Sesbania is “did not increase the effectiveness”. For the same compound, the “Effect of C16 to C18 fatty acid methyl esters adjuvant system on effectiveness/efficacy of the herbicide (weeds overall)” value with weeds was “improved the efficacy”. The “Effect of C16 to C18 fatty acid methyl esters adjuvant system on effectiveness on Palmer Amaranth” value in the data set on Palmer Amaranth was “did not increase the effectiveness”. Moreover, in the data set with peanut, the “Effect of C16 to C18 fatty acid methyl esters adjuvant system on phytotoxicity on peanut” value is “increase the phytotoxicity”. Moreover, the “Effect of C16 to C18 fatty acid methyl esters adjuvant system on phytotoxicity on soybeans” value with soybeans was “did not significantly increase phytotoxicity”. For the same compound, in the data set with Common Barnyardgrass, the “Effect of C16 to C18 fatty acid methyl esters adjuvant system on effectiveness on Common Barnyardgrass” value is recorded as “increases the effectiveness”. For the same compound, in the data set with rice, the “Effect of C16 to C18 fatty acid methyl esters adjuvant system on phytotoxicity on rice” value was “increase the phytotoxicity”.

Take `CCOC(=O)C(C)OC(=O)c1cc(Oc2ccc(C(F)(F)F)cc2Cl)ccc1[N+](=O)[O-]` (centres unmarked) [lactofen]: the “Effect of C16 to C18 fatty acid methyl esters adjuvant system on effectiveness/efficacy of the herbicide (weeds overall)” value in the data set on weeds was “did not improve the efficacy; also recorded: failed to increase the effectiveness”.

As to `C#CCN1C(=O)COc2cc(F)c(N3C(=O)C4=C(CCCC4)C3=O)cc21` [flumioxazin], the “Effect of C16 to C18 fatty acid methyl esters adjuvant system on effectiveness/efficacy of the herbicide (weeds overall)” value in the data set with weeds is reported as “did not improve the efficacy; also recorded: failed to increase the effectiveness”.
